Source: patent US20220306623A1, “PYRIDYL OR PYRIMIDYL MTOR KINASE INHIBITORS” (GLAXOSMITHKLINE INTELLECTUAL PROPERTY DEVELOPMENT LIMITED, priority 2019, published 2022)

Key:
[1] = tested on: phosphorylated Akt at serine 473 (pAKTs473) in primary human lung fibroblasts; experiment: High throughput phosphorylated Akt (Ser473) in vitro immunoassay (MSD); type: cell-based; conditions: Fibroblast, primary human lung fibroblasts (Lonza), 384-well, compound 1 h, PDGF-BB 10 ng/ml 10 min, read-out: mean pIC50, pAKTser473 high throughput immunoassay (converted)
Source text: Immunoassay to measure effect of test compounds on phosphorylated Akt at serine 473 (pAKTs473) in primary human lung fibroblasts (Lonza Group Ltd, Basel, Switzerland, Catalogue No. CC-2512) using the MesoScale Discovery (MSD) platform to quantify levels of total Akt and pAKTser473.
Human lung fibroblasts were routinely maintained in fibroblast basal medium supplemented with 2% foetal bovine serum (FBS), 0.1% human fibroblast growth factor (FGF)-B, 0.1% insulin, 0.1% GA-100 (Lonza Group Ltd, Basel, Switzerland, Catalogue No. CC-3132) at 37° C. in 5% CO2 according to the manufacturer's protocol.
For the assay, cells were harvested using Trypsin/EDTA, (Lonza Group Ltd, Basel, Switzerland, Catalogue No. CC-5012), at working concentration of 0.025%, resuspended to give 3×10^5 cells/ml and 50 ul/well seeded into 384-well plates (Greiner Group, Kremsmunster, Austria, Catalogue No. 781091) in media containing 0.4% FBS and incubated o/n at 37° C. in 5% CO2.
Test compounds were dissolved in 100% DMSO to give 10 mM stock solutions and serially diluted to generate an 11-point concentration response curve. Compound were further diluted by […] into 384-well V-bottom polypropylene plates (Greiner Group, Kremsmunster, Austria, Catalogue No. 781280) with media containing 0.4% FBS to give 50 µM top compound concentration in 0.5% DMSO.
Compounds were transferred to 384-well plates contacting cells (0.1% DMSO final) and incubated for 1 h at 37° C. in 5% CO2, prior to stimulation with platelet-derived growth factor (PDGF)-BB (R&D Systems, Catalogue No. 220-BB) at 10 ng/ml (final) for 10 min at RT. Cell assay plates were incubated on ice and treated with lysis buffer (Cell Signalling Technology, Catalogue No. 9806) containing protease and phosphatase inhibitors (Thermo Scientific, Catalogue No. 78444) followed by shaking for 30 min at 4° C.
MSD plates (MSD, MA6000 384-well GAR plate, Catalogue No. L21RA-2) were blocked with blocking buffer containing TBS (MSD, Cat. No. R61TX-1) with 0.5% bovine serum albumin (BSA) (Sigma Aldrich, Cat. No. A7906), 0.1% tween-20 (Sigma Aldrich, Catalogue No. P2287) and coated with rabbit-anti-human pAkt (s473) ab (Cell Signalling Technology, Catalogue No. CST #4060) at RT with shaking, followed by washing (×3) with 1×TBS wash reagent containing 0.1% Tween-20. Cell lysates (30 ul) were added and MSD plates centrifuged at 1000 rpm at 4° C. o/n.
Plates were washed with 1×TBS wash buffer (×3), prior to addition of mouse-anti-human-total Akt ab (1 mg/ml) (Upstate (Milipore), Catalogue No. 05-591) in blocking buffer and shaken at RT for 1 h. After washing with 1×TBS wash buffer (×3), plates were incubated with goat-anti-mouse SULFO-TAG detection ab (MSD, Catalogue No. R32AC-1) (1:500 in blocking buffer) for 1 h at RT. Plates were washed with 1×TBS (×3) and read buffer (2×) (MSD, Catalogue No. R92TC-1) added before detecting electrochemiluminescence (MSD Sector Imager 6000).
Data analysis was performed by determining % inhibition values for test compounds relative to the minimum (+PDGF-BB stimulation) and maximum responses (no PDGF-BB stimulation) with non-linear regression analysis to determine IC50 values for test compounds.

[2] = tested on: type I collagen deposition in primary lung fibroblasts derived from human tissue; experiment: High throughput type I collagen deposition (scar-in-a-jar) high content screening assay; type: cell-based; conditions: Primary lung fibroblast, 72 h, human pulmonary fibroblasts, 384-well, TGF-β 1 ng/ml 72 h, total collagen area, read-out: mean pIC50, high throughput type I collagen deposition (scar-in-a-jar) (converted)
Description: Highthroughput, cellular type I collagen deposition was measured by adapting a published method; scar-in-a-jar (Chen et al., 2009) to primary lung fibroblasts derived from human tissue and combining with high content analysis to permit fluorescent quantification of collagen deposited in the extracellular matrix (ECM). The human biological samples were sourced ethically and their research use was in accordance with the terms of the informed consents.
Test compounds were dissolved in 100% DMSO to give 10 mM (stocks) and further diluted to give half log dilutions to generate an 11 point concentration response curve. 1 ul was transferred to 384-well plates (Greiner Group, Kremsmunster, Austria, Catalogue No Greine 781280r).
Human pulmonary fibroblasts were maintained in DMEM media (Gibco, Catalogue No 21969) supplemented with 4 mM L-glutamine (Gibco Catalogue No 25030-024) and 10% heat inactivated FBS (Gibco, Catalogue No 10099-141) at 37° C. in 10% CO2. Cells were harvested and resuspended at 4×10^6 cells/ml in a T175 cell culture flask (BD Falcom, Catalogue No: 353112) containing 50 mL of culture media. After 4 days 37° C. in 10% CO2, cells were harvested and seeded at 4000 cells per well ([…]) into 384-well plates (BD Falcon, Catalogue No 353962Greiner) in assay media (0.4% heat inactivated FBS, 4 mM L-glutamine). Plates were sealed with breathable seals (Sigma, Catalogue No. BEM-1). Assay plates were incubated for 72 h at 37° C. in 10% CO2.
Assay media was supplemented with 112.5 mg/ml Ficoll 70 (Sigma, Catalogue No F2878), 75 mg/ml Ficoll 400 (Sigma, Catalogue No F4375) and 50 µg/ml ascorbic acid (Sigma, Catalogue No A8960). 30 μL assay media were added to 1 l compound ([…] compound concentration in 1% DMSO). Diluted compounds (10 μL) were transferred to plates containing cells and incubated for 3 h at 37° C. in 10% CO2. Transforming growth factor (TGF)-β (R&D systems, Catalogue No 100-B/CF) was reconstituted to give 10 µg/mL (stock) and further diluted in assay media containing Ficoll and ascorbic acid (1 in 3333). TGF-β was added to cell plates (1 ng/ml final) and cells incubated for 72 h at 37° C. in 10% CO2.
Media was aspirated from cells and 30 µL/well 100% ice-cold methanol added and incubated at RT for 5 min to fix cells. Methanol was aspirated and cells washed with PBS (3×). To block and permeabilise, cells were incubated with PBS containing 1% BSA and 0.1% Triton X 100 for 20 min, followed by PBS wash (3×). Cells were incubated with mouse anti human type I collagen monoclonal antibody (Sigma, Catalogue No C2456) diluted 1:1000 in PBS for 24 h at 4° C. Cells were washed with PBS containing 0.1% Tween-20 (3×) and incubated with secondary alexa fluor 488 goat-anti-mouse antibody (Invitrogen, Catalogue No A11001, 1 in 500 in PBS) and Hoechst 33342 (Sigma, Catalogue No H21492), 1 in 1000 in PBS) for 1 h at RT, prior to washing with PBS containing 0.1% Tween (×4).
Type I collagen immunoreactivity was detected using the INCell 2000 Analyzer (GE Healthcare, INcell 2000) set to excitation and emission wavelengths for DAPI and FITC with laser focus and exposure adjusted to appropriate levels. Images were imported and analysed using Columbus software (Perkin Elmer) and computational algorithms to quantify “total collagen area” and “cell count”.
Data analysis was performed by determining 0/inhibition values for test compounds relative to the minimum (media only) and maximum responses (TGF-βstimulation) with non-linear regression analysis to determine IC50 values for test compounds.

[3] = target: T1, mTOR (Homo sapiens, UniProt P42345); experiment: mTOR kinobeads competition-binding assay; conditions: HuT-78 cell lysate, bead-immobilized capturing ligand, 2 h at 4° C., mean of multiple experiments; read-out: mean pIC50, mTOR kinobeads assay (converted)
T1 construct: capturing of endogenously expressed target proteins from cell extracts by a bead-immobilized capturing ligand; endogenous in cells; host or cells: HuT-78 cells (ECACC 88041901), cell lysate
Description: The affinity of test compounds for mTOR was determined in the mTOR kinobeads assay. This is a competition-binding assay based on the capturing of endogenously expressed target proteins from cell extracts by a bead-immobilized capturing ligand in the presence of the test compound.
HuT-78 cells (European Collection of Authenticated Cell Cultures, 88041901) were cultured according to vendor's instructions. Frozen cell pellets were homogenized in 3× pellet volumes lysis buffer (50 mM Tris-HCl, 0.4% (v/v) Igepal-CA630, 5% glycerol, 150 mM NaCl, 1.5 mM MgCl2, 25 mM NaF, 1 mM sodium vanadate, 1 mM DTT, pH 7.5, supplemented with EDTA-free protease inhibitor tablet (Roche)). The sample was dispersed using a Dounce homogenizer, kept rotating for 30 min at 4° C., and centrifuged for 10 min at 20000 gat 4° C. The supernatant was centrifuged again for 1 h at 145 000 g. The protein concentration was determined by Bradford assay (BioRad), aliquots were snap frozen in liquid nitrogen and stored at −80° C.
The capturing matrices were generated by derivatizing N-hydroxysuccinimide (NHS) activated Sepharose 4 beads (GE Healthcare) with the functionalized ligands Compound A and Compound C at a ligand density of 5 mM. Remaining NHS-groups were blocked with ethanolamine.
For the mTOR kinobeads assay the matrices were combined in a 1:1 ratio and equilibrated in DP buffer (50 mM Tris-HCl (pH 7.5), 0.4% (v/v) Igepal-CA630, 5% (v/v) glycerol, 150 mM NaCl, 1.5 mM MgCl2, 25 mM NaF, 1 mM Na3VO4, 1 mM dithiothreitol). All steps of the mTOR kinobeads assay were performed at 4° C. or on ice. The cell lysate was diluted with DP buffer to a final concentration of 5 mg/ml and a final detergent concentration of 0.4% (v/v) Igepal-CA630. For the assay 250 μg cell lysate and 2.5 μl capturing matrix per well (final assay volume: 75 μl) were incubated in the presence of test compounds in a 384-well filter plate (MultiScreenHTS HV Filter Plate, 0.45 μm, MZHVNOW50, Merck Millipore). Each plate contained 16 positive (100 μM Compound B) and 16 negative (2% v/v DMSO) control wells. Compounds were tested in a concentration-response applying 1:3 or 1:4 dilution steps for in total 11 data points. DMSO concentration was 2% (v/v). After 2 h incubation on an overhead shaker (Roto-Shake Genie, Scientific Industries Inc.) at 4° C. the non-bound fraction was removed by washing the beads with DP buffer. Proteins retained on the beads were eluted in SDS sample buffer (200 mM Tris (pH 7.4), 250 mM Trizma Base, 4% (w/v) SDS, 20% (v/v) glycerol, 0.01% (w/v) bromophenol blue, 50 mM dithiothreitol) into a collection plate (384 well polypropylene microplate, V-shape, Greiner, 781 280). Eluates were spotted on nitrocellulose membranes (400 nl per spot) using an automated pin-tool liquid transfer (Biomek FX, Beckman). After drying, the membranes were rehydrated in 20% (v/v) ethanol and blocked by incubation with Odyssey blocking buffer (LICOR, 927-40000) for 1 h at room temperature. Blocked membranes were incubated overnight at 25° C. with Odyssey blocking buffer supplemented with a specific anti-mTOR antibody (Cell Signaling, 2972; 1:500) and 0.4% TWEEN-20. Then the membranes were washed in PBST buffer and incubated for 60 minutes at room temperature with the detection antibody (IRDye™ labelled antibody from LI-COR) diluted in Odyssey blocking buffer (LICOR 927-40000) containing 0.2% TWEEN-20. Then the membranes were washed with PBST and finally rinsed twice with PBS buffer to remove residual Tween-20. The membranes were then scanned with the Odyssey® Infrared Imaging System (LI-COR Biosciences). Fluorescence signals were recorded and analyzed according to the instructions of the manufacturer. Concentration response curves were computed with the software Activity Base. All data were normalized to the mean of 16 high (negative control) and 16 low (positive control) control wells on each plate. […]

SMILES | IC50 [1] [nM] | IC50 [2] [nM] | IC50 [3] [nM]
CC[C@H]1COCCN1c1cc(C2(S(C)(=O)=O)CCOCC2)cc(-c2ccc3[nH]c(C)cc3n2)n1 [Example 21, (S)-3-ethyl-4-(6-(2-methyl-1H-pyrrolo[3,2-b]pyridin-5-yl)-4-(4-(methylsulfonyl)tetra-hydro-2H-pyran-4-yl)pyridin-2-yl)morpholine] | 2.51 to 25.1 | 20 to 3160 | 
CC[C@H]1COCCN1c1cc(CS(C)(=O)=O)cc(-c2ccc3[nH]c(C)cc3n2)n1 [Example 22, (S)-3-ethyl-4-(6-(2-methyl-1H-pyrrolo[3,2-b]pyridin-5-yl)-4-((methylsulfonyl)methyl)pyridin-2-yl)morpholine] | 2.51 to 25.1 | 20 to 3160 | 
CC[C@@H]1COCC(=O)N1c1cc(CS(C)(=O)=O)cc(-c2ccc3[nH]c(CNC)cc3n2)n1 [Example 34, (R)-5-ethyl-4-(6-(2-((methylamino)methyl)-1H-pyrrolo[3,2-b]pyridin-5-yl)-4-((methylsulfonyl)methyl)pyridin-2-yl)morpholin-3-one] | 7940 |  | 1260
